# In patent publication US6482827B1, “Matrix metalloproteinase inhibitors” (Pharmacia & Upjohn S.p.A., priority 1997, dated 2002):
# Columns and labels:
# [1] = target: T1, Human collagenase (MMP-1) (Homo sapiens, UniProt P03956); experiment: Biochemical assay (Protocol A), Ki at steady state, MMP-1; settings: preincubation, 37° C., pH=7.4, read-out: Ki at steady state (Ki*) for inhibition of MMP-1
# T1 sequence (P03956 101-269): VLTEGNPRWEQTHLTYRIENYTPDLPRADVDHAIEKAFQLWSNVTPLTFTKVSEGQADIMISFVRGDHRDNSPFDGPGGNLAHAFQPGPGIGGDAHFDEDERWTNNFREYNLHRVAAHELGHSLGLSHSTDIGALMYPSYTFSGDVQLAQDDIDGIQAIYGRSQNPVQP
# Experimental: (§1) Human gelatinase-A (MMP-2) was obtained as pro-enzyme (72 kDa) and was activated with 1 mM 4-aminophenylmercuric acetate for 30 min at 37° C. immediately prior to use. Human stromelysin-1-255 (MMP-3) was obtained as a recombinant pro-enzyme isolated from E. coli and activated by heat (1 h, 55° C.).
# (§2) The substrate was the commercial quenched-fluorescence peptide Mca-Pro-Leu-Gly-Leu-Dpa-Ala-Arg-NH2, that is (7-methoxycoumarin4-yl)Acetyl-Pro-Leu-Glv-Leu-(3-[2,4-dinitrophenyl]-L-2,3-diamino-propionyl)-Ala-Arg-NH2 (C. G. Knight et al., FEBS Lett.296:263, 1992). The enzymes cleave at the Gly-Leu bond, removing the internally quenching Dpa group. Release of the highly fluorescent peptide Mca-Pro-Leu was followed fluorimetrically at 37° C. using a Perkin Elmer LS-50 Fluorescence Spectrophotometer fitted with a thermostatted four position stirring cell changer. The excitation wavelength was set at 326 nm (bandwidth 5 nm) and the emission at 392 nm (bandwidth 20 nm). Km values of this substrate for the three MMP's is 70 μM or more (Knight et al., reference above). Substrate concentration was 2 μM in the tests, so that we could approximate to unit the term (1+[substrate]/KM) in calculations. The substrate was stable for over 60 minutes in the assay conditions, giving no appreciable increment of fluorescence. Full response was adjusted against 200 nM Mca-Pro-Leu-OH (the released fluorescent peptide) and the instrument was calibrated in the range 0-100 nM Mca-Pro-Leu-OH, corresponding to 0-5% extent of hydrolysis of the 2 μM substrate. The aqueous assay buffer was 50 mM Tris/HCl pH=7.4 containing 0.15 M NaCl, 10 mM CaCl2, 0.01 mM ZnCl2 and 0.05% Brij 35. The concentration of the activated enzyme was determined by titration against representative inhibitors described in the literature and synthesized in house: Roche Ro31-9790 (N. G. Knebel et al., J. Chromatogr. B 673:213, 1995) for MMP-1, and Celltech CT-1418 (compound 1 in S. K. Chander, J. Pharm. Sci. 84:404, 1995) for MMP-2 and MMP-3. Enzyme concentrations in the tests were set at 1.0 nM for MMP-1, 0.04 nM for MMP-2, and 3.0 nM for M-3. Under our assay conditions, we measured keat/KM values of 26900, 669000 and 9740 1/(M×s) for MMP-1, MMP-2 and MMP-3, respectively. All the three enzymes were found stable for over three hours in the assay conditions.
# (§3) The inhibition constant for compounds of the present invention was measured at steady state (Ki*; see J. F. Morrison and C. T. Walsh, Adv. Enzymol. Relat. Areas Mol. Biol. 61:201, 1988), upon preincubation experiment, by measuring V0, the initial rate in the absence of inhibitor, and Vs, the steady-state velocity, at different concentrations of inhibitors in the region of their enzyme-inhibitor dissociation constants.
# (§4) On a routine basis, 1.94 mL of assay buffer was pre-heated at 37° C. in a vial, 0.02 mL of inhibitor in DMSO (or DMSO only), and 0.02 ml of 100 nM MMP-1 or 4 nM MMP-2 or 300 nM MMP-3 were added, mixed, and the vial was held at 37° C. for 5-180 minutes. Then 0.02 ml of 0.2 mM substrate was added, mixed and transferred into a pre-heated cell. The sample was allowed to equilibrate in the cuvette for 3-5 min at 37° C. against small changes in temperature and changes in the enzyme-inhibitor equilibria related to addition of substrate. After that, the linear increase of fluorescence was monitored over 3-5 min, and the slope (Vo or Vs) was obtained. Inhibitor concentrations were varied to collect data over Vs/Vo ratio ranging from 0.05 to 0.95. The values of Ki* were calculated by nonlinear weighted regression to the tight-binding equation according to Morrison and Walsh above:
# (§5) Vs/Vo=[1/(2×Et)]×SQR[(Ki*+It−Et)^2+4×Ki*×Et]−(Ki*+It−Et)
# (§6) wherein Et is the total enzyme concentration, and It is the total inhibitor concentration. The following Table I lists Ki* obtained for some representative examples: […]
# [2] = target: T2, Human gelatinase-A (MMP-2) (Homo sapiens, UniProt P08253); experiment: Biochemical assay (Protocol A), Ki at steady state, MMP-2; settings: preincubation, 37° C., pH=7.4, read-out: Ki at steady state (Ki*) for inhibition of MMP-2
# T2 sequence (P08253 110-660): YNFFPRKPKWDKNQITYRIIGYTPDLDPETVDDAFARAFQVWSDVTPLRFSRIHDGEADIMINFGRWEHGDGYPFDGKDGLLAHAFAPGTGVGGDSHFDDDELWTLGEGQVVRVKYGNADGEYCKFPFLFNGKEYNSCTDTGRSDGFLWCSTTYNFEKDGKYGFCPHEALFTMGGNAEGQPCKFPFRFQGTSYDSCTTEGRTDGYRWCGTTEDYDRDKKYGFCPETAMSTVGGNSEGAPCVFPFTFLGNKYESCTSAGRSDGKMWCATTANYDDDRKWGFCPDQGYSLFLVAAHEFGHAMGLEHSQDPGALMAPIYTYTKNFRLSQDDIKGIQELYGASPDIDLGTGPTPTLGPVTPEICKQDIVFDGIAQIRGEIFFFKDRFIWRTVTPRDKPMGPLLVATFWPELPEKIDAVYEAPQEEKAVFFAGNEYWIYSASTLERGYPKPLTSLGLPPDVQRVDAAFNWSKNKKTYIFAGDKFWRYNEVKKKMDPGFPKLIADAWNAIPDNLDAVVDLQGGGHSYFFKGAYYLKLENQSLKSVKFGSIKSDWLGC
# Experimental: as §1, §2, §3, §4, §5, §6
# [3] = target: T3, Human stromelysin-1-255 (MMP-3) (Homo sapiens, UniProt P08254); experiment: Biochemical assay (Protocol A), Ki at steady state, MMP-3; settings: preincubation, 37° C., pH=7.4, read-out: Ki at steady state (Ki*) for inhibition of MMP-3
# T3 construct: host or cells: E. coli
# T3 sequence (P08254 100-255 limits assumed): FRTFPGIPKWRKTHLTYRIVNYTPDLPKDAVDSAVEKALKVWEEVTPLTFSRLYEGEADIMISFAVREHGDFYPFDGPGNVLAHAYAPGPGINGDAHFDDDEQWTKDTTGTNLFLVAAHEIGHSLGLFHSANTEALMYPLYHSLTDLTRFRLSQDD
# Experimental: as §1, §2, §3, §4, §5, §6
# Aqueous solubility = type: physicochemical; settings: 25° C.; for solubility: water
# [4] = PK parameters in rats, iv route; settings: rat, in vivo, 10-15 mg/kg
# Experimental: As a further example, Table 3 reports clearance and AUC values measured after intravenous administration to rats of a […] of some representative compounds of the present invention.
# [5] = PK parameters, oral route, rat; type: in vivo; settings: 10-15 mg/kg; for bioavailability: read-out: % F (oral bioavailability)
# Experimental: (§7) As an additional example, Table 4 reports the maximum plasma concentration (Cmax) and oral bioavailability (% F; calculated from dose-normalised ratio of oral to i.v. mean AUC values) after oral administration to rats or cynomolgus monkeys of a […] of some representative compounds of the present invention.
# [6] = PK parameters, oral route, cynomolgus monkey; type: in vivo; settings: 10-15 mg/kg
# Experimental: as §7
# [7] = plasma, dose-normalised ratio of oral to i.v. mean AUC
# [8] = dose-normalised ratio of oral to i.v. mean AUC
SMILES,Ki [1] [nM],Ki [2] [nM],Ki [3] [nM],other results
"CC(C)C[C@@H](C(=O)N1CCCCC1)[C@H](NC(=O)OC(C)(C)C)C(=O)NO [Example 2, (3S-tert-Butoxycarbonylamino-4-hydroxyamino-2R-isobutyl)succinyl-piperidinamide]",1100,2800,13000,solubility (Aqueous solubility; Conditions A): > 4500 µg/mL
"CC(C)C[C@@H](C(=O)N1CCOCC1)[C@H](N)C(=O)NO [Example 10, (3S-Amino-4-hydroxyamino-2R-isobutyl)succinyl-morpholinamide]",180,340,2200,"AUC [4]: 11100 ng·h/mL; clearance [4]: 24 mL/min/kg; bioavailability [5, 7]: 28%; Cmax ([5]; plasma, read-out: Cmax): 2120 ng/mL"
"C[C@@H](NC(=O)[C@H](CC1CCCC1)[C@H](N)C(=O)NO)C1CCCCC1 [Example 50, (3S-Amino-2R-cyclopentylmethyl-4-hydroxyamino)succinyl-(1R-cyclohexylethyl)amide]",26,58,490,"Cmax [5]: 3146 ng/mL; % F (oral bioavailability) [5, 8]: 50%; Cmax [6]: 49516 ng/mL; % F (oral bioavailability) [6, 8]: 70%"
"COc1ccc(S(=O)(=O)N[C@H](C(=O)NO)[C@@H](CC(C)C)C(=O)N2CCCCC2)cc1 [Example 7, (4-Hydroxyamino-3S-(4-methoxyphenylsulfonyl)amino-2R-isobutyl)succinyl-piperidin-amide]",70,250,720,solubility (Aqueous solubility; Conditions A): 4000 µg/mL
"Cc1ccc(S(=O)(=O)N[C@H](C(=O)NO)[C@@H](CC(C)C)C(=O)N2CCOCC2)cc1 [Example 12, (4-Hydroxyamino-2R-isobutyl-3S-(4-toluenesulfonyl)amino)succinyl-morpholinamide]",41,190,380,"AUC [4]: 6580 ng·h/mL; clearance [4]: 39 mL/min/kg; bioavailability [5, 7]: 21%; Cmax ([5]; plasma, read-out: Cmax): 2440 ng/mL"
"CC(C)C[C@@H](C(=O)N1CCCCC1)[C@@H](C(=O)NO)N(C)C [Example 5, (3SN,N-Dimethylamino-4-hydroxyamino-2R-isobutyl)succinyl-piperidinamide]",61,310,940,solubility (Aqueous solubility; Conditions B): > 6000 µg/mL
"COc1ccc(CCC[C@@H](C(=O)N2CCOCC2)[C@H](N)C(=O)O)cc1 [Example 14, (3S-Amino-4-hydroxy-2R-(4-methoxy)phenpropyl)succinyl-morpholinamide]",,,,Aqueous solubility (Aqueous solubility; Conditions B): >14000 µg/mL
"COc1ccc(CCC[C@@H](C(=O)N2CCOCC2)[C@H](NC(=O)OC(C)(C)C)C(=O)O)cc1 [Example 13, (3S-tert-Butoxycarbonylamino-4-hydroxy-2R-(4-methoxy)phenpropyl)succinyl-morpholinamide]",,,,Aqueous solubility (Aqueous solubility; Conditions A): 6710 µg/mL
"COc1ccc(CCC[C@@H](C(=O)N2CCOCC2)[C@H](N)C(=O)NO)cc1 [Example 16, (3S-Amino-4-hydroxyamino-2R-(4-methoxy)phenpropyl)succinyl-morpholinamide]",6400,94,2400,solubility (Aqueous solubility; Conditions B): > 9600 µg/mL
"N[C@H](C(=O)NO)[C@@H](CC1CCCC1)C(=O)N1CCCCC1 [Example 22, (3S-Amino-2R-cyclopentylmethyl-4-hydroxyamino)succinyl-piperidinamide]",15,67,730,"solubility (Aqueous solubility; Conditions B): > 8200 µg/mL; bioavailability [5, 7]: 62%; Cmax ([5]; plasma, read-out: Cmax): 5490 ng/mL"
"CC(C)C[C@@H](C(=O)N1CCCCC1)[C@H](N)C(=O)NO [Example 3, (3S-Amino-4-hydroxyamino-2R-isobutyl)succinyl-piperidinamide]",88,290,2500,solubility (Aqueous solubility; Conditions A): > 9500 µg/mL
"COc1ccc(S(=O)(=O)N[C@H](C(=O)NO)[C@@H](CC2CCCC2)C(=O)N2CCN(Cc3ccc4c(c3)OCO4)CC2)cc1 [Example 37, (2R-Cyclopentylmethyl-4-hydroxyamino-3S-(4-methoxyphenyl)sulfonylamino)succinyl-(4-piperonyl)piperazinamide]",1.8,2.6,35,
"COc1ccc(CCC[C@@H](C(=O)N2CCCCC2)[C@H](N)C(=O)NO)cc1 [Example 18, (3S-Amino-4-hydroxyamino-2R-(4-methoxy)phenpropyl)succinyl-piperidinamide]",850,79,860,solubility (Aqueous solubility; Conditions B): > 9600 µg/mL
"COc1ccc(CCC[C@@H](C(=O)N2CCOCC2)[C@@H](C(=O)NO)N(C)C)cc1 [Example 19, (3S-N,N-Dimethylamino-4-hydroxyamino-2R-(4-methoxy)phenpropyl)succinyl-morpholinamide]",4500,230,1100,solubility (Aqueous solubility; Conditions A): 7500 µg/mL; AUC [4]: 9380 ng·h/mL; clearance [4]: 27 mL/min/kg
